Reference: the kinase profiling compilation of Christmann-Franck et al. (2016)

Columns and labels:
Assay in all cases: radiometric filter-binding kinase assay, Kinase HotSpot
Settings in all cases: compound 0.5 µM; ATP 10 µM
TAOK2 (human) = TAOK2 (human) (UniProt Q9UL54)
HCK (human) = HCK (human) (UniProt P08631)
STK3 (human) = STK3 (human) (UniProt Q13188)
SRPK3 (human) = SRPK3 (human) (UniProt Q9UPE1)
PTK6 (human) = PTK6 (human) (UniProt Q13882)
BTK (human) = BTK (human) (UniProt Q06187)
STK24 (human) = STK24 (human) (UniProt Q9Y6E0)
VRK1 (human) = VRK1 (human) (UniProt Q99986)
PRKCD (human) = PRKCD (human) (UniProt Q05655)
IGF1R (human) = IGF1R (human) (UniProt P08069)
CDK4 CCND1 (human) = CDK4 CCND1 (human) (UniProt P24385+P11802)
BLK (human) = BLK (human) (UniProt P51451)
EPHB1 (human) = EPHB1 (human) (UniProt P54762)
EPHA8 (human) = EPHA8 (human) (UniProt P29322)
MAPK9 (human) = MAPK9 (human) (UniProt P45984)
MYLK2 (human) = MYLK2 (human) (UniProt Q9H1R3)
PLK2 (human) = PLK2 (human) (UniProt Q9NYY3)
MKNK2 (human) = MKNK2 (human) (UniProt Q9HBH9)
MAPK12 (human) = MAPK12 (human) (UniProt P53778)
AKT2 (human) = AKT2 (human) (UniProt P31751)
MAPK8 (human) = MAPK8 (human) (UniProt P45983)
ITK (human) = ITK (human) (UniProt Q08881)
TSSK2 (human) = TSSK2 (human) (UniProt Q96PF2)
STK10 (human) = STK10 (human) (UniProt O94804)
CDK4 CCND3 (human) = CDK4 CCND3 (human) (UniProt P30281+P11802)
PRKD2 (human) = PRKD2 (human) (UniProt Q9BZL6)
DCLK2 (human) = DCLK2 (human) (UniProt Q8N568)
FGFR4 (human) = FGFR4 (human) (UniProt P22455)
SYK (human) = SYK (human) (UniProt P43405)
NEK2 (human) = NEK2 (human) (UniProt P51955)
IRAK1 (human) = IRAK1 (human) (UniProt P51617)
CDK7 CCNH MNAT1 (human) = CDK7 CCNH MNAT1 (human) (UniProt P50613+P51948+P51946)
CSNK1E (human) = CSNK1E (human) (UniProt P49674)
HIPK3 (human) = HIPK3 (human) (UniProt Q9H422)
MAPKAPK2 (human) = MAPKAPK2 (human) (UniProt P49137)
SRC (human) = SRC (human) (UniProt P12931)
DDR2 (human) = DDR2 (human) (UniProt Q16832)
FGFR2 (human) = FGFR2 (human) (UniProt P21802)
NUAK2 (human) = NUAK2 (human) (UniProt Q9H093)
BMX (human) = BMX (human) (UniProt P51813)
DMPK (human) = DMPK (human) (UniProt Q09013)
PRKCB2 (human) = PRKCB2 (human) (UniProt P05771)

TSSK2 (human), sequence (Q96PF2 whole entry, looked up): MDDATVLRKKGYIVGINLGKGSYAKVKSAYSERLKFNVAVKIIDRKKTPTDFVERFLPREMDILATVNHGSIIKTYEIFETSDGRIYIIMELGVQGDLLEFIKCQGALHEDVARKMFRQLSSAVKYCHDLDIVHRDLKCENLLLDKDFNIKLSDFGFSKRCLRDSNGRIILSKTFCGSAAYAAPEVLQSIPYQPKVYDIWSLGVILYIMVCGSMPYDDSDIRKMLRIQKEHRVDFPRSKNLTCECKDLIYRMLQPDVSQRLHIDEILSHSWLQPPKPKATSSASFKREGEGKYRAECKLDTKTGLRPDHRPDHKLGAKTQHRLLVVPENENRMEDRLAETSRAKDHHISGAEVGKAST
PRKCD (human), sequence (Q05655 whole entry, looked up): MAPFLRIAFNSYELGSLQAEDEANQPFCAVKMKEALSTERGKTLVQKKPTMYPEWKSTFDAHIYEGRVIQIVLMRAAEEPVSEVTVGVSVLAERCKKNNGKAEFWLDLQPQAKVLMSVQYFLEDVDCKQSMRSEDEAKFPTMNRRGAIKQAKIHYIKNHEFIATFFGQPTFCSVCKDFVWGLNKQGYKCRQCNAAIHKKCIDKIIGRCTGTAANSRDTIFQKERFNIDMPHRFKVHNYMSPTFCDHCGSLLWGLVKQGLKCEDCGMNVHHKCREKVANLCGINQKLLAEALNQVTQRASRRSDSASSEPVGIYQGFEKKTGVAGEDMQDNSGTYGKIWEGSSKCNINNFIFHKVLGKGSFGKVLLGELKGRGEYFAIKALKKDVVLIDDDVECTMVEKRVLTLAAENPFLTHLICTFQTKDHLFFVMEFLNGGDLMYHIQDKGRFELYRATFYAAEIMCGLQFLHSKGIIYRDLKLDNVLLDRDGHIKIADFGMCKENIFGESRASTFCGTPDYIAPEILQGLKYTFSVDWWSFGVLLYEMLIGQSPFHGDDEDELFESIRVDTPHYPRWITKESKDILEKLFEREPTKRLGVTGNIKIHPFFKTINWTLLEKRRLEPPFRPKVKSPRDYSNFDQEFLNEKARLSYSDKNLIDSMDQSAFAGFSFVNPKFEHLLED
PLK2 (human), sequence (Q9NYY3 whole entry, looked up): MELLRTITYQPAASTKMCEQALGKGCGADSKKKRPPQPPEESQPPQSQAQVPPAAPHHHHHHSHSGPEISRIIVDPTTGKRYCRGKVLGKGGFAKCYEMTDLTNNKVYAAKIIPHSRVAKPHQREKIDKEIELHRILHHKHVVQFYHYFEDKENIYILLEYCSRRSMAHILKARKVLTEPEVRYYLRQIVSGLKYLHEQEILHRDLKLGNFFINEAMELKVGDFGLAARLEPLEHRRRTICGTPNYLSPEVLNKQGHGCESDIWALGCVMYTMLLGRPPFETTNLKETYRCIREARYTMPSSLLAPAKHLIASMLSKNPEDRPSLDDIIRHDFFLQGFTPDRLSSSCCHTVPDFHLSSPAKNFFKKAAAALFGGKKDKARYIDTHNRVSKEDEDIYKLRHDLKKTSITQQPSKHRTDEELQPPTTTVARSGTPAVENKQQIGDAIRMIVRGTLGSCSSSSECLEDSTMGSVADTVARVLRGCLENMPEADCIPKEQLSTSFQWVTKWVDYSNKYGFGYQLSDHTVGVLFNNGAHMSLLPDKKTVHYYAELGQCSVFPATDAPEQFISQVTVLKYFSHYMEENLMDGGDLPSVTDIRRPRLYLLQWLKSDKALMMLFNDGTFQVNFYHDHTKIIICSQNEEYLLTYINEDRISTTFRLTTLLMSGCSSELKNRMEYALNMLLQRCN
MAPK9 (human), sequence (P45984 whole entry, looked up): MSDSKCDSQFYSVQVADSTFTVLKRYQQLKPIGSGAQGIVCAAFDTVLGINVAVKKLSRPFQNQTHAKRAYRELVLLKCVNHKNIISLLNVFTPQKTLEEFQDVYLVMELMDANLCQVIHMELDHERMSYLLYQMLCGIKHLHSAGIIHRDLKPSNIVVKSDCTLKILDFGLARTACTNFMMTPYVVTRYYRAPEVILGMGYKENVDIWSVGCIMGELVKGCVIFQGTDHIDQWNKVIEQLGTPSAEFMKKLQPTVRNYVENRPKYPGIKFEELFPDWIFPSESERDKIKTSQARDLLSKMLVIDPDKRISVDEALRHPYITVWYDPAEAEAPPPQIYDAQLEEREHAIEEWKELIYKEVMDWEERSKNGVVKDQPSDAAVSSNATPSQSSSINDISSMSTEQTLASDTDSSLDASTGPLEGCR
MAPKAPK2 (human), sequence (P49137 whole entry, looked up): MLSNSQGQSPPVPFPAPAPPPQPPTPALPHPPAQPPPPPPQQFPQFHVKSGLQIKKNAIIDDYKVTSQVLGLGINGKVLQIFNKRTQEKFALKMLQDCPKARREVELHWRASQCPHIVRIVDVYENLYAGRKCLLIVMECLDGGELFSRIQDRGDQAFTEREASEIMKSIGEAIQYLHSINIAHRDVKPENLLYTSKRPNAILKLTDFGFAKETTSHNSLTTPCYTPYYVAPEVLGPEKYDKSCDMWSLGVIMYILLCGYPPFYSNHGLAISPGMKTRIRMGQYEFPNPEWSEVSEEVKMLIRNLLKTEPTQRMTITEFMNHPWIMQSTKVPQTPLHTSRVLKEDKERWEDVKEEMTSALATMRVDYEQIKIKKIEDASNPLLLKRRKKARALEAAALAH
FGFR2 (human), sequence (P21802 whole entry, looked up): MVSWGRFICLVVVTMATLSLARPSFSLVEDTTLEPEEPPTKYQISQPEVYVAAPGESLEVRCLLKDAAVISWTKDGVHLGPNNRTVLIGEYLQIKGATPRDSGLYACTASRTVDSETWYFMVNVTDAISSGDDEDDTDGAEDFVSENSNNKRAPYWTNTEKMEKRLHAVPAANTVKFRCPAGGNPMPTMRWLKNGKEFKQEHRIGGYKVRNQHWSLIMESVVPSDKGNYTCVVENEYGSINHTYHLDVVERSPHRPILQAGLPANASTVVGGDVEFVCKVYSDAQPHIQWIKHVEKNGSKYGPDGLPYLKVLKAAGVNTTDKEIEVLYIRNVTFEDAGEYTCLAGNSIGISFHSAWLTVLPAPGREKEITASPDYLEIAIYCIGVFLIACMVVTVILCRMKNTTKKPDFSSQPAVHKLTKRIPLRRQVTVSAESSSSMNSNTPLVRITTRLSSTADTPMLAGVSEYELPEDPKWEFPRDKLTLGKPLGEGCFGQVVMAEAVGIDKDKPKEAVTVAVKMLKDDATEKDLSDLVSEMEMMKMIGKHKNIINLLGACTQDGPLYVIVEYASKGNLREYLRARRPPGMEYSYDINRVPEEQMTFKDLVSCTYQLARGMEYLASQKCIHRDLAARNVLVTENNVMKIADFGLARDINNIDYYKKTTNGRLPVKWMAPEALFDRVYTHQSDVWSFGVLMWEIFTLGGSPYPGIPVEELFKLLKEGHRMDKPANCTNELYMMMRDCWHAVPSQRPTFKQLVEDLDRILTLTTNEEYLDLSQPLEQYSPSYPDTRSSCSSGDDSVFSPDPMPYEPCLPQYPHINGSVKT
CDK7 CCNH MNAT1 (human), sequence (P50613 whole entry, looked up): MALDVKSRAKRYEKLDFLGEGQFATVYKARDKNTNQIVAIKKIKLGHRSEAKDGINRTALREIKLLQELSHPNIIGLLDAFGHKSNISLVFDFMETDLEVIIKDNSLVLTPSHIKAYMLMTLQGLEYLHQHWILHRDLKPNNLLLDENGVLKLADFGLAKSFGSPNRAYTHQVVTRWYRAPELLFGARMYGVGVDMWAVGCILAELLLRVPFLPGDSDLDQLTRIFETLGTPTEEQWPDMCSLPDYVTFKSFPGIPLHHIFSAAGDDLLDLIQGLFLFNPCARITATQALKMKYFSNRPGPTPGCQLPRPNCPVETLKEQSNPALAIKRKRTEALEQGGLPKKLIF
CDK7 CCNH MNAT1 (human), sequence (P51946 whole entry, looked up): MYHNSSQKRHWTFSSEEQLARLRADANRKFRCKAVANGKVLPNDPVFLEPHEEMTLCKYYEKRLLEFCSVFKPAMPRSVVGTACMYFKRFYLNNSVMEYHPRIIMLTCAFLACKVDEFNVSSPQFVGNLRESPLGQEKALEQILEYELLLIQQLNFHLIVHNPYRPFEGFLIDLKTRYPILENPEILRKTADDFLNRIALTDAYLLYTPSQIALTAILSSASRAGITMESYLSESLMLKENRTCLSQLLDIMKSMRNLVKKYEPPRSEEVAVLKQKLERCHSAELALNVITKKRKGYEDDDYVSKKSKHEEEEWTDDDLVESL
CDK7 CCNH MNAT1 (human), sequence (P51948 whole entry, looked up): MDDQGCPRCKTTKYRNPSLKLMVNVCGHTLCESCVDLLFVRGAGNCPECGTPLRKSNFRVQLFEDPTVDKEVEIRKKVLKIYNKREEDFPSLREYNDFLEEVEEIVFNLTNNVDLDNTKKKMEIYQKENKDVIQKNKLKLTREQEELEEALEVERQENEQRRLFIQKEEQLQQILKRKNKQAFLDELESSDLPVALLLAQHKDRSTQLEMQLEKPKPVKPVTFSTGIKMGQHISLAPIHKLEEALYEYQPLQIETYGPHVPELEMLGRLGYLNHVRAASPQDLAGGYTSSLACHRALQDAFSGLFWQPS
MAPK8 (human), sequence (P45983 whole entry, looked up): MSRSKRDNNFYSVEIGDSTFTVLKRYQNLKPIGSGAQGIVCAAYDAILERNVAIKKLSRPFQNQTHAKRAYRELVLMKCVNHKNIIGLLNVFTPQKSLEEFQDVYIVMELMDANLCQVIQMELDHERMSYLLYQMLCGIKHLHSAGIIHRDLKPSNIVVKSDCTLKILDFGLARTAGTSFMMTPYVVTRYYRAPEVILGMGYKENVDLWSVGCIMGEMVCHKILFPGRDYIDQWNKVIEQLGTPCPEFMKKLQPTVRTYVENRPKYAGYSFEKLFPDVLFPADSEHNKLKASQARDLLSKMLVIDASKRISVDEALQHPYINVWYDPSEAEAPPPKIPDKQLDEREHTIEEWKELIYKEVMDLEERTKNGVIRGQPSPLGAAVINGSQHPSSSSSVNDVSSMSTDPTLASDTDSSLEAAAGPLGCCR

Structure (SMILES) | residual activity (HCK (human)) [%] | residual activity (SRPK3 (human)) [%] | residual activity (PTK6 (human)) [%] | residual activity (BTK (human)) [%] | residual activity (STK24 (human)) [%] | residual activity (VRK1 (human)) [%] | residual activity (PRKCD (human)) [%] | residual activity (IGF1R (human)) [%] | residual activity (CDK4 CCND1 (human)) [%] | residual activity (BLK (human)) [%] | residual activity (EPHB1 (human)) [%] | residual activity (EPHA8 (human)) [%] | residual activity (MAPK9 (human)) [%] | residual activity (MYLK2 (human)) [%] | residual activity (PLK2 (human)) [%] | residual activity (MKNK2 (human)) [%] | residual activity (MAPK12 (human)) [%] | residual activity (AKT2 (human)) [%] | residual activity (MAPK8 (human)) [%] | residual activity (ITK (human)) [%] | also measured
N#C/C(=C1/Nc2ccccc2S1)c1ccnc(NCCc2cccnc2)n1 | 92.2 | 89.5 | 46.5 | 88.8 | 95.6 | 94.1 | 92.2 | 100 | 90.4 | 102 | 90.9 | 98.5 | 67.5 | 92.8 | 95.8 | 51 | 96.7 | 104 | 87.6 | 98.8 | residual activity (TAOK2 (human)): 86.4%; residual activity (STK3 (human)): 98.9%; residual activity (TSSK2 (human)): 102%; residual activity (STK10 (human)): 86.3%; residual activity (CDK4 CCND3 (human)): 85.7%; residual activity (PRKD2 (human)): 79.2%; residual activity (DCLK2 (human)): 96%; residual activity (FGFR4 (human)): 101%; residual activity (SYK (human)): 92.4%; residual activity (NEK2 (human)): 87.8%; residual activity (IRAK1 (human)): 91.8%; residual activity (CDK7 CCNH MNAT1 (human)): 93.2%; residual activity (CSNK1E (human)): 74.9%; residual activity (HIPK3 (human)): 106%; residual activity (MAPKAPK2 (human)): 97.8%; residual activity (SRC (human)): 86.8%; residual activity (DDR2 (human)): 94.5%; residual activity (FGFR2 (human)): 102%; residual activity (NUAK2 (human)): 72.5%; residual activity (BMX (human)): 92.9%
O=c1cc(N2CCOCC2)oc2c(-c3ccccc3)cccc12 | 98.3 | 95.5 | 96 | 94.5 | 97.1 | 85.4 | 96 | 102 | 111 | 120 | 95.9 | 103 | 102 | 102 | 98.9 | 103 | 104 | 94 | 106 | 93.3 | residual activity (TSSK2 (human)): 91.4%; residual activity (STK10 (human)): 97.1%; residual activity (CDK4 CCND3 (human)): 96.2%; residual activity (PRKD2 (human)): 93.8%; residual activity (DCLK2 (human)): 97.6%; residual activity (FGFR4 (human)): 104%; residual activity (SYK (human)): 99.7%; residual activity (NEK2 (human)): 89.8%; residual activity (IRAK1 (human)): 104%; residual activity (CDK7 CCNH MNAT1 (human)): 95.4%; residual activity (CSNK1E (human)): 103%; residual activity (HIPK3 (human)): 120%; residual activity (MAPKAPK2 (human)): 103%; residual activity (DMPK (human)): 99.4%; residual activity (PRKCB2 (human)): 104%; residual activity (SRC (human)): 96.3%; residual activity (DDR2 (human)): 91.3%; residual activity (FGFR2 (human)): 95.8%; residual activity (NUAK2 (human)): 95.1%; residual activity (BMX (human)): 96.9%
N/C(=N\N=C/c1ccc(-c2cccc([N+](=O)[O-])c2)o1)N[N+](=O)[O-] | 114 | 100 | 101 | 110 | 87.7 | 95.1 | 94.2 | 96.4 | 96.6 | 102 | 107 | 102 | 111 | 100 | 107 | 89.3 | 93.4 | 99.7 | 91.2 | 99.5 | residual activity (TAOK2 (human)): 95.3%; residual activity (STK3 (human)): 100%; residual activity (TSSK2 (human)): 101%; residual activity (STK10 (human)): 99.6%; residual activity (CDK4 CCND3 (human)): 103%; residual activity (PRKD2 (human)): 94.3%; residual activity (DCLK2 (human)): 101%; residual activity (FGFR4 (human)): 106%; residual activity (SYK (human)): 91.8%; residual activity (NEK2 (human)): 88.9%; residual activity (CDK7 CCNH MNAT1 (human)): 100%; residual activity (CSNK1E (human)): 91%; residual activity (MAPKAPK2 (human)): 96.3%; residual activity (DMPK (human)): 102%; residual activity (PRKCB2 (human)): 100%; residual activity (SRC (human)): 99%; residual activity (DDR2 (human)): 101%; residual activity (FGFR2 (human)): 104%; residual activity (NUAK2 (human)): 95.2%; residual activity (BMX (human)): 90.1%
